Test results reported in patent US9089544B2, “Composition” (Slotervaart Participaties BV, priority 2007, dated 2015).
Where “and” joins values, the source holds several entries; their conditions need not be identical. Equal values may be shown once.

How the values were obtained:
[1] = Docetaxel solubility (dissolution) test of formulations A to N in 25 mL WfI; format: physicochemical; conditions: 37° C., 720 rpm; for maximum docetaxel concentration / maximum docetaxel concentration as % of total docetaxel present: ±6 mg docetaxel
Method: A magnetic stirring bar and 25 mL water were added to the beaker. The solution was stirred at 720 rpm, and kept at approximately 37° C. Samples were collected at various timepoints, and filtrated using a 0.45 μm filter before they were diluted with a 1:4 v/v mixture of methanol and acetonitrile. The filtrated and diluted samples were subsequently analyzed by HPLC-UV (see table 17).

[2] = clinical; conditions: human, in vivo, 100 mg
Method: Oral ritonavir: 1 capsule with 100 mg ritonavir (Norvir®).
Ritonavir dose: 1 capsule with 100 mg ritonavir (Norvir®).
After drug administration blood samples were collected for pharmacokinetic analyses. A blank sample was taken before dosing. Blood samples were centrifuged, plasma was separated and immediately stored at −20° C. until analyses. Analysis were performed with validated HPLC methods in a GLP (Good Laboratory Practice) licensed laboratory. This concerns all pharmacokinetic studies presented here by the inventors.

[3] = cited from earlier work
[4] = Clinical phase I trial: docetaxel liquid formulation versus MODRA capsules with ritonavir (Example 5); format: in vivo, human; conditions: 20 mg docetaxel liquid formulation, patient 306
Method: 10 patients participated in an ongoing clinical phase I trial.
The final mixture was transferred to a stainless steel lyophilisation box (Gastronorm size 1/3), t-butanol and water were subsequently removed by lyophilisation (see table. 16).
Patients took the medication orally on an empty stomach in the morning with 100 mL tap water.
Patients 307, 308, 309 and 310 received liquid formulation and/or MODRA. Cycles were administered in a weekly interval.
According to institutional guidelines, for both oral and i.v. docetaxel all patients were treated with oral dexamethason. A dose of 4 mg dexamethason was given 1 hour prior to the study drugs, followed by 4 mg every 12 hours (2 times).
A blank sample was taken before dosing.
According to institutional guidelines, for both oral and i.v. docetaxel, all patients were treated with oral dexamethason. A dose of 4 mg dexamethason was given 1 hour prior to the study drugs, followed by 4 mg every 12 hours (2 times).

[5] = mice; cited from earlier work
[6] = human, in vivo
Method: (§1) Pharmacokinetic (PK) analysis of the data generated from the above trial was performed using the NONMEM (non-linear mixed effect modelling) program (GloboMax LLC, Hanover, Md., USA) to produce a pharmacokinetic profile. This models the absorption, elimination and distribution of a drug using different compartments.
(§2) This model uses three compartments and is well described by Bruno et al. [85].

[7] = clinical; conditions: human, in vivo, po, 100 mg
Method: as §1, §2

[8] = cited from earlier work; remark: listed apart in the source
[9] = cited from earlier work; remark: listed apart in the source
[10] = cited from earlier work; remark: listed apart in the source
[11] = oral docetaxel 75 mg/m^2, CsA 15 mg/kg

## CC(=O)O[C@@]12CO[C@@H]1C[C@H](O)[C@@]1(C)C(=O)[C@H](O)C3=C(C)[C@@H](OC(=O)[C@H](O)[C@@H](NC(=O)OC(C)(C)C)c4ccccc4)C[C@@](O)([C@@H](OC(=O)c4ccccc4)[C@H]21)C3(C)C [Formulation A, docetaxel]
[1]
  equilibrium docetaxel concentration: approximately 6 μg/mL
  equilibrium docetaxel concentration as % of total docetaxel present: ~2%
  time at which equilibrium concentration is reached: 15 min
  time of stirring at which maximum concentration is reached: 5 min
  maximum docetaxel concentration: approximately 12 μg/mL
  maximum docetaxel concentration as % of total docetaxel present: ~4.7%

## CC(=O)O[C@@]12CO[C@@H]1C[C@H](O)[C@@]1(C)C(=O)[C@H](O)C3=C(C)[C@@H](OC(=O)[C@H](O)[C@@H](NC(=O)OC(C)(C)C)c4ccccc4)C[C@@](O)([C@@H](OC(=O)c4ccccc4)[C@H]21)C3(C)C [Formulation B, docetaxel]
[1]
  solubility from 10 to 60 minutes: comparable to formulation A
  time of stirring at which maximum concentration is reached: 0.5 min
  maximum docetaxel concentration: 32 µg/mL
  maximum docetaxel concentration as % of total docetaxel present: 13%

## CC(=O)O[C@@]12CO[C@@H]1C[C@H](O)[C@@]1(C)C(=O)[C@H](O)C3=C(C)[C@@H](OC(=O)[C@H](O)[C@@H](NC(=O)OC(C)(C)C)c4ccccc4)C[C@@](O)([C@@H](OC(=O)c4ccccc4)[C@H]21)C3(C)C [docetaxel]
[2]; iv, AUC IV day 15
  AUC: 2100 ng·h/mL
[2]; iv, Tmax IV day 15
  Tmax: 48 min
[2]; po, AUC docetaxel oral without ritonavir
  AUC: 290 ± 260 ng·h/mL
[3]; [11]
  apparent bioavailability of oral docetaxel with CsA: 90%
  increase of the systemic exposure of docetaxel with oral CsA: 7.3 fold
[3]; oral docetaxel 75 mg/m^2
  apparent bioavailability of oral docetaxel without CsA: 8%
[3]; range observed after i.v. administration, oral in the same range
  inter- and intra-patient variabilities in the AUC of docetaxel: 29%-53%
[4]
  increase of docetaxel AUC by second boosting dose of 100 mg ritonavir 4 hours after docetaxel: 1.5 fold
[5]
  apparent bioavailability without ritonavir: 4%
  increase of AUC of oral docetaxel by coadministration with CsA: ninefold
[6]
  volume of the central compartment, oral administration: ~60 L
[7]
  bioavailability: 14%
[8]; 100 mg oral docetaxel + CsA 15 mg/kg, weekly
  docetaxel AUC: about 2.3 mg·h/L
[8]; weekly 100 mg oral docetaxel + CsA 15 mg/kg, breast cancer
  overall response rate: 50% and 52%

## CC(=O)O[C@H]1C(=O)[C@@]2(C)[C@H]([C@H](OC(=O)c3ccccc3)[C@]3(O)C[C@H](OC(=O)[C@H](O)[C@@H](NC(=O)c4ccccc4)c4ccccc4)C(C)=C1C3(C)C)[C@]1(OC(C)=O)CO[C@@H]1C[C@@H]2O [paclitaxel]
[9]; mdr1a P-gp knockout mice
  increase of AUC in knockout mice compared with wild-type mice, i.v. administration: twofold
  increase of AUC in knockout mice compared with wild-type mice, oral administration: sixfold
[9]; mouse, in vivo, po
  oral bioavailability in wild-type mice when CsA was coadministered: 67%
  oral bioavailability in wild-type mice with GF120918: 40%
  oral bioavailability in wild-type mice, paclitaxel alone: 9% and 8.5%
[9]; oral administration
  fraction of unchanged paclitaxel recovered from the faeces, mdr1a P-gp knockout mice: 3%
[10]; 60 mg/m^2 oral paclitaxel, 15 mg/kg CsA
  apparent bioavailability of oral paclitaxel with CsA: 47%
[10]; 60 mg/m^2 oral paclitaxel
  apparent bioavailability of oral paclitaxel without CsA: 4%
[10]; oral paclitaxel in combination with CsA
  maximum tolerated dose: 300 mg/m^2

## CC(C)c1nc(CN(C)C(=O)N[C@H](C(=O)N[C@@H](Cc2ccccc2)C[C@H](O)[C@H](Cc2ccccc2)NC(=O)OCc2cncs2)C(C)C)cs1 [ritonavir]
[2]; po
  Ritonavir Cmax Simultaneous: 200 ng/mL
